Reference: US5696136A, “Method of treating psychosis using azaheterocyclylmethyl” (Bayer Aktiengesellschaft, priority 1991, dated 1997)
Counter-ions that a name gives are not always drawn. Like-named read-outs stand apart in the source and are kept apart here.

Columns and labels:
[1] = target: dopamine D2 receptor (Rattus norvegicus, UniProt P61169); test: Dopamine D2 receptor test; binding of 3H-sulpiride to membranes from the striatum of rats
Procedure: In this test the binding of the selective D2 receptor antagonist ^3 H-sulpiride to membranes from the striatum of rats is measured. Compounds which bind to dopamine D2 receptors inhibit the binding of ^3 H-sulpiride in a concentration-dependent manner. IC50 values are determined from the displacement curves and the inhibition constants Ki calculated from these values.

[2] = target: T1, 5-HT1A receptor (Bos taurus, UniProt F6Q2H9); test: Affinity for the 5-HT1A receptor; binding of 3H-ipsapiron to 5-HT1A receptors in calf hippocampus membranes
T1 construct: 5-HT1A receptors in calf hippocampus membranes; from tissue; host or cells: calf hippocampus membranes
T1 sequence (F6Q2H9 1-422): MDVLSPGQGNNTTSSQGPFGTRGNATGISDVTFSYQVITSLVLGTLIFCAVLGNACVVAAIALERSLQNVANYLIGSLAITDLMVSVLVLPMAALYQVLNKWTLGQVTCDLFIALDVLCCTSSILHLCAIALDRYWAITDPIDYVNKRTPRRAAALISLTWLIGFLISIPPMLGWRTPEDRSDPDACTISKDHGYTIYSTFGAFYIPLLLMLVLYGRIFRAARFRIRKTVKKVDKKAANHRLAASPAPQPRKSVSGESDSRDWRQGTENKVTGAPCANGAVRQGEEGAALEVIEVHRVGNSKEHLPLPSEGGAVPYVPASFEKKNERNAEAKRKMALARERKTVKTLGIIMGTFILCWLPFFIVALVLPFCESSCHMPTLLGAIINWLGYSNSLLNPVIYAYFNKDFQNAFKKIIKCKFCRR
Procedure: Affinity for the 5-HT1A receptor
[W. U. Dompert et al., Naunyn-Schmiedeberg's Arch. Pharmacol. (1985), 328, 467-470].
In this test the binding of ^3 H-ipsapiron to 5-HT1A receptors in calf hippocampus membranes is measured.

[3] = tested on: α-adrenergic; conditions: hydrochloride; literature; cited from earlier work
[4] = target: 5-HT1 receptor; test: Affinity for the 5-HT1 receptor; receptor-binding studies using calf hippocampus membrane preparations, 3H-serotonin; conditions: calf hippocampus membranes
Source text: Affinity for the 5-HT1 receptor
The high affinity of the compounds according to the invention for 5-hydroxytryptamine receptors of subtype 1 is shown in Table 1 by way of example. The values shown are data which have been determined from receptor-binding studies using calf hippocampus membrane preparations. To this end, ^3 H-serotonin was used as radioactively labelled ligand.

[5] = 3H-sulpiride, rat striatum membranes, Ki calculated from IC50, read-out: Ki

dopamine D2 receptor, sequence (P61169 whole entry): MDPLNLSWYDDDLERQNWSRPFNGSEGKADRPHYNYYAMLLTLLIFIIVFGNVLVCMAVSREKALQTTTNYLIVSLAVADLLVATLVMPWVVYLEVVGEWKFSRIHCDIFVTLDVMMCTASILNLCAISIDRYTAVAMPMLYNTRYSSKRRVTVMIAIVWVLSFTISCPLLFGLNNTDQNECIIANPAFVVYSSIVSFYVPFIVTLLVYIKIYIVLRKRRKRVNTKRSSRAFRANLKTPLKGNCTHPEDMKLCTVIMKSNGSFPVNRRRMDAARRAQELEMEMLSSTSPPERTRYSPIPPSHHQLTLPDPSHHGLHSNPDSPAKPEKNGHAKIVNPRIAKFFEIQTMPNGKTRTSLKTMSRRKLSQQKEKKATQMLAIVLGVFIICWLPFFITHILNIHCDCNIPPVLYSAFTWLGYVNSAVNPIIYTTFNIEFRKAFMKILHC

| Ki [2] [nM] | Ki [1, 5] [nM] | Compound | Ki [4] [nM] | further results |
| --- | --- | --- | --- | --- |
| – | – | O=c1[nH]c2ccccc2n1C1CCN(CC2CCc3ccccc3O2)CC1 (centres unmarked) [Example 3, 1-(Chroman-2-yl-methyl)-4-(2-oxo-1-benzimidazolyl)-piperidine] | – | Ki [1]: 0.4 nM |
| 1.5 | – | O=c1[nH]c2ccccc2n1C1=CCN(CC2CCc3ccccc3O2)CC1 (centres unmarked) [Example 5] | – | – |
| 1.4 | 2.3 | COc1cccc2c1OC(CN1CC=C(n3c(=O)[nH]c4ccccc43)CC1)CC2 (centres unmarked) [Example 6] | – | – |
| – | – | c1ccc2c(c1)CCC(CN1CCCCC1)O2 (centres unmarked) [1-[(3,4-dihydro-2H-1-benzopyran-2-yl)methyl]piperidine] | – | α-adrenergic-blocking effect [3]: α-adrenergic-blocking effect |
| – | – | COc1cccc2c1OC(CN1CCC(n3c(=O)[nH]c4ccccc43)CC1)CC2 (centres unmarked) [Example 4] | 2 | – |
| – | 1.8 | COc1cccc2c1OC(CN1CCC(CN3C(=O)c4ccccc4C3=O)CC1)CC2 (centres unmarked) [Example 2, 2-[4-(Isoindol-1,3-dion-2-yl)methyl-piperidin-1-yl)methyl-8-methoxychroman oxalate hydrate] | 3 | – |
